According to PMC10609143, “Inhibitory Mechanisms of Lekethromycin in Dog Liver Cytochrome P450 Enzymes Based on UPLC-MS/MS Cocktail Method” (Molecules, 2023):

Columns and labels:
Assay type in all cases: in vitro ADME
CYP2C9 = test: CYP450 inhibition study of LKMS in dog liver microsomes, tolbutamide 4-hydroxylation; conditions: probe at Km, 15 min, 0.2 mg/mL protein, n = 3
Protocol: (§1) All experiments were performed in triplicate.
(§2) Inhibition assessment of CYP450 isoforms in DLM was performed with a fixed concentration of model probe substrates and a series of concentrations of LKMS ranging from 0 to 80 μM. The concentration of probe substrates was at a concentration of Km in this study. […] Mode inhibition was examined based on a primary Lineweaver–Burk plot and a secondary plot.
(§3) The IC50 values and enzyme kinetic parameters were determined by plotting relative activities over the logarithm of the concentration of LKMS using GraphPad (v.8.0.2, CA, USA). The mode of the inhibitor was analyzed using a Lineweaver–Burk plot and a secondary plot for inhibition constant (Ki and αKi) values. All experimental data are shown as mean ± standard deviation (SD).

CYP2B6 = target: T1, CYP2B6 (Canis lupus familiaris, UniProt P24460); test: CYP450 inhibition study of LKMS in dog liver microsomes, bupropion hydroxylation
T1 construct: from tissue; host or cells: dog liver microsomes (DLM)
T1 sequence (P24460 1-494): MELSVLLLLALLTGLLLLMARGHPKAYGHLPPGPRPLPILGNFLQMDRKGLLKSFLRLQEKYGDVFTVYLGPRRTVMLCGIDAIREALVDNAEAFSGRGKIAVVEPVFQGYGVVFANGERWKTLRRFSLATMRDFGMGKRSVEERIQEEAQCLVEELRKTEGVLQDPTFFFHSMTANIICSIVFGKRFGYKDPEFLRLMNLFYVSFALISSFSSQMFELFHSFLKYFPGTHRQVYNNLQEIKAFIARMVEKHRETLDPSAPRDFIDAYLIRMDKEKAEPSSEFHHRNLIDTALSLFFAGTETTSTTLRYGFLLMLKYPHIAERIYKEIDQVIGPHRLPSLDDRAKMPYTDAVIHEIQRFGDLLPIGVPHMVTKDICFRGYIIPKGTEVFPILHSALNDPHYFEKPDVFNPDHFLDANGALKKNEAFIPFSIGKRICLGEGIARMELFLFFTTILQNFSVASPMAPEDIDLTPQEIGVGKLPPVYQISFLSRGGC
Protocol: as §1, §2, §3

CYP2D6 = target: T2, CYP2D6 (Canis lupus familiaris, UniProt Q29473); test: Irreversible inhibition (IC50 shift) in dog liver microsomes
T2 construct: from tissue; host or cells: dog liver microsomes (DLM)
T2 sequence (Q29473 1-500): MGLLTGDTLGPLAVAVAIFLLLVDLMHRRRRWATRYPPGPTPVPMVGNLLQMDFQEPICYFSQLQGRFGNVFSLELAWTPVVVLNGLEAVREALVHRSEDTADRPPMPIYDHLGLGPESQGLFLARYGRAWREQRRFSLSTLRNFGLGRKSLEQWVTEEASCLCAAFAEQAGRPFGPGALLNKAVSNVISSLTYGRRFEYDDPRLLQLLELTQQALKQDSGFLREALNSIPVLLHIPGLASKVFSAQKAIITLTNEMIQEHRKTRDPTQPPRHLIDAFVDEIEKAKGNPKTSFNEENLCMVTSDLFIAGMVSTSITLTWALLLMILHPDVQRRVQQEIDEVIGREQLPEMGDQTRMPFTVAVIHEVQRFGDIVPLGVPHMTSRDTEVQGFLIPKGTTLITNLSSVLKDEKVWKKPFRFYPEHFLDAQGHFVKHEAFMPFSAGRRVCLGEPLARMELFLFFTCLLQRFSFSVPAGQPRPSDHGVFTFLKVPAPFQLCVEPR
Protocol: To characterize the reversible or irreversible mechanism of CYP450 inhibition via LKMS, the shifted IC50 values were used to determine whether the inhibition of LKMS on CYP450 was time-dependent. […] The above mixture was then incubated for another 30 min in the presence of NADPH. The concentrations of LKMS were designated as 0.2, 2, 4, 6, 8, 10, 20, 40, and 80 μM, and the concentration of each probe substrate was based on each Km value. The concentrations of the probe substrates of CYP2A6, CYP2B6, and CYP2D6 were at single concentrations approximating their Km values.

CYP2A6 = test: CYP450 inhibition study of LKMS in dog liver microsomes, coumarin hydroxylation
Protocol: as §1, §2, §3

[1] = test system: CYP450 enzymes in dog liver microsomes; test: Chemical inhibition experiments: LKMS disappearance rate with selective CYP450 inhibitors; conditions: n = 3
Protocol: The effect of selective inhibitors on the rate of LKMS disappearance was investigated to identify the metabolizing enzymes of LKMS. The total volume of the incubation system was 200 μL, which contained the tested compound, inhibitors, PBS (pH = 7.4), LKMS, and NADPH. The study was performed via incubation with different inhibitors of CYP450 as follows: α-naphthoflavone (CYP1A2, 2 μM), pilocarpine (CYP2A6, 8 μM), Thio-TEPA (CYP2B6, 6 μM), sulfaphenazole (CYP2C9, 6 μM), quinidine (CYP2D6, 8 μM), sodium diethyldithiocarbamate (CYP2E1, 20 μM), and ketoconazole (CYP3A4, 2 μM). The sample incubated without inhibitors was used as a negative control. The sample was incubated with dimethyl sulfoxide (DMSO) (25%) as a positive control in this study. Following this pilot, confirmatory experiments were conducted by incubating with DLM in the presence of specific CYP450 inhibitors.

[2] = CYP450 inhibition study of LKMS in dog liver microsomes, testosterone 6β-hydroxylation; conditions: probe at Km, 15 min, 0.2 mg/mL protein, n = 3
Protocol: as §1, §2, §3

CYP1A2 = target: T3, CYP1A2 (Canis lupus familiaris, UniProt P56592); test: CYP450 inhibition study of LKMS in dog liver microsomes (cocktail, UPLC-MS/MS), phenacetin O-deethylation; conditions: probe at Km, 15 min, 0.2 mg/mL protein, n = 3
T3 construct: from tissue; host or cells: dog liver microsomes (DLM)
T3 sequence (P56592 1-512): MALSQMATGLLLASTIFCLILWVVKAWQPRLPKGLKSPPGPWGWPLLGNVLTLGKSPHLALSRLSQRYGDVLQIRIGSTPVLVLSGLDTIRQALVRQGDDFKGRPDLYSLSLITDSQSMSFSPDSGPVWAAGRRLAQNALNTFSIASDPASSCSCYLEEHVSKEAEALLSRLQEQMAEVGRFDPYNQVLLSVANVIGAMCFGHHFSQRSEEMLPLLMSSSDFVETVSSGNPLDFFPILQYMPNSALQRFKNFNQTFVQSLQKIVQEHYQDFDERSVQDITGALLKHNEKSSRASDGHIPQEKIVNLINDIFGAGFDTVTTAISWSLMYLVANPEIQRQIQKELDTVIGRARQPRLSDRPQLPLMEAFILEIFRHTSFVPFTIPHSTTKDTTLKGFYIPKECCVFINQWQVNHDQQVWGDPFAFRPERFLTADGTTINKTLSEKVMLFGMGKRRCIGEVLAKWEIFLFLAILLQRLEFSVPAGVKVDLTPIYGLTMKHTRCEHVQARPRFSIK
Protocol: as §1, §2, §3

Lekethromycin [LKMS]
IC50 (CYP2C9): > 200 µM
Mode of inhibition (CYP2B6; CYP2B6, Lineweaver-Burk plots): mixed way
Ki (CYP2B6; CYP2B6, dog liver microsomes, Lineweaver-Burk and secondary (slope) plot, n = 2, read-out: Ki (inhibition constant)): 59.4 µM
αKi (alpha inhibition constant) (CYP2B6; CYP2B6, dog liver microsomes, secondary (intercept) plot, n = 2): 12.07 µM
IC50 fold-shift, Shift Ratio (−NADPH/+NADPH) (CYP2D6; CYP2D6, 30 min preincubation at 37 °C with and without NADPH): 1.10
Time-dependent inhibition (CYP2D6; CYP2D6, judged from IC50 fold-shift <1.5): might not be a time-dependent inhibitor
Mode of inhibition (CYP2A6; CYP2A6, Lineweaver-Burk plots): mixed-type inhibition
Ki (CYP2A6; CYP2A6, dog liver microsomes, Lineweaver-Burk and secondary (slope) plot, n = 2, read-out: Ki (inhibition constant)): 136 µM
αKi (alpha inhibition constant) (CYP2A6; CYP2A6, dog liver microsomes, secondary (intercept) plot, n = 2): 227.6 µM
IC50 (CYP2A6; dog liver microsomes, coumarin hydroxylation, probe at Km, 15 min, 0.2 mg/mL protein, n = 3): 62.5 µM
Decrease of biotransformation rate of LKMS ([1]; CYP1A2 inhibitor α-naphthoflavone 2 μM): about 50%
Decrease of biotransformation rate of LKMS ([1]; CYP2A6 inhibitor pilocarpine 8 μM): about 50%
Decrease of biotransformation rate of LKMS ([1]; CYP2B6 inhibitor Thio-TEPA 6 μM): about 50%
Decrease of biotransformation rate of LKMS ([1]; CYP2C9 inhibitor sulfaphenazole 6 μM): about 50%
Decrease of biotransformation rate of LKMS ([1]; CYP2E1 inhibitor sodium diethyldithiocarbamate 20 μM): about 50%
IC50 [2]: > 200 µM
IC50 (CYP1A2): > 200 µM
